{"source": "patent EP0167245B1", "about": "“Anti-arrhythmic agents” (AMERICAN HOME PRODUCTS CORPORATION, priority 1984, dated 1986)"}
{"tested_on": "rabbit aortic smooth muscle", "experiment": "Ca+2 antagonism: relaxation of KCl-depolarised rabbit thoracic aorta strips", "assay_type": "cell-based", "conditions": "Oryctolagus cuniculus, 20 min; test compound 1 x 10^-5 M; 100 mM KCl contracted aortic strips; 20 min after addition; mean of two experiments; read-out: percent relaxation (P. R.)", "protocol": "(§1) Here, transverse strips (10 mm x 2.5 mm) from the thoracic aorta were cut and suspended vertically in a jacketed (37 °C - 50 ml volume) organ bath in physiological saline solution (PSS) aerated with 95 % Oz/5 % CO9. The composition of PSS was as follows (mM) : NaCI 112, KCI 5, NaHC03 25, KH2PO4 1, MgS04 1.2, CaCI2 2.5, dextrose 10. The lower end of each tissue strip was attached to a fixed post and the upper end to a Statham UC-4 transducer. Changes in force development were recorded on a Beckman Dynograph Polygraphic Recorder.\n(§2) Following equilibration, the muscles were contracted in a depolarizing solution of PSS in which 100 mM KCI was substituted for an equimolar concentration of NaCI. Following attainment of steady-state isometric force (20 min.), the test compound was added to afford a final concentration of 1 x 10-^5 M. The inhibitory effect, expressed as percent relaxation, was determined from the mean of two experiments twenty minutes after the addition of the compound being tested.\n(§3) The following examples illustrate the preparation of a representative number of compounds of this invention. After each example, the Ca^2+ antagonist activity of the compound is presented in terms of percent relaxation (P. R.) at 10-^5 M concentration unless indicated otherwise. Similarly, the percentage mortality of standard experimental test animals upon coronary ligation (C. L.) is presented for comparison with the control mortality rate of 73 percent of animals receiving vehicle alone.", "units": {"inhibition at 10 µM": "%"}}
{"smiles": "COc1ccc(CCN(C)CCCS(=O)(=O)N(c2cccc(C(F)(F)F)c2)C(C)C)cc1OC", "note": "[Example 6, N-(3-Trifluoromethylphenyl)-3-[[2-(3,4-dimethoxyphenyl)ethyl]methylamino]-N-(1-methylethyl)-1-prop-anesulphonamide]", "inhibition at 10 µM": 78.5}
{"smiles": "COc1ccc(CCN(C)CCCS(=O)(=O)N(c2cc(OC)c(OC)c(OC)c2)C(C)C)cc1OC", "note": "[Example 3, 3-[[2-(3,4-Dimethoxyphenyl)ethyl]methylamino]-N-(1-methylethyl)-N-(3,4,5-trimethoxyphenyl)-1-prop-anesulphonamide]", "inhibition at 10 µM": 62}
{"smiles": "COc1ccc(CCN(C)CCCN(C(C)C)S(=O)(=O)c2cccc(C(F)(F)F)c2)cc1OC", "note": "[Example 7, N-[3-[[2-(3,4-Dimethoxyphenyl)ethyl]methylamino]propyl]-N-(1-methylethyl)-3-(trifluoromethyl) benzenesulphonamide]", "inhibition at 10 µM": 86.6}
{"smiles": "COc1ccc(CCN(C)CCCS(=O)(=O)N(c2ccc(OC)c(OC)c2)C(C)C)cc1OC", "note": "[Example 2, N-(3,4-Dimethoxyphenyl)-3-[[2-(3,4-dimethoxyphenyl)ethyl]methylaminol]-N-(1-methylethyl)-1-prop-anesulphonamide]", "inhibition at 10 µM": 74}
{"smiles": "COc1cc(OC)cc(N(C(C)C)S(=O)(=O)CCCN(C)CCc2ccc(OC)c(OC)c2)c1", "note": "[Example 1, N-(3,5-Dimethoxyphenyl)-3-[(2-(3,4-dimethoxyphenyl)ethyl]-methylamino]-N-(1-methylethyl)-1-prop-anesulphonamide]", "inhibition at 10 µM": 90}
{"smiles": "COc1ccc(CCN(C)CCCS(=O)(=O)Nc2cccc(C(F)(F)F)c2)cc1OC", "note": "[Example 5, N-(3-Trifluoromethylphenyl)-3-[[2-(3,4-dimethoxyphenyl)-ethyl)methylamino]-1-propanesulphonamide]", "inhibition at 10 µM": 51}
{"smiles": "COc1ccc(CCN(C)CCCCN(C(C)C)S(=O)(=O)c2ccc(Cl)c(Cl)c2)cc1OC", "note": "[Example 14, 3,4-Dichloro-N-(4-[[2-(3,4-dimethoxyphenyl)ethyl]methylamino]butyl]-N-(1-methylethyl) benzenesulphonamide]", "inhibition at 10 µM": 68}
{"smiles": "COc1ccc(CCN(C)CCCN(C(C)C)S(=O)(=O)c2ccc(OC)c(OC)c2OC)cc1OC", "note": "[Example 15, N-[3-[[2-(3,4-dimethoxyphenyl)ethyl]methylamino]propyl]-N-(1-methylethyl)-2.3,4-trimethoxybenzenesul-phonamide]", "inhibition at 10 µM": 80}
{"smiles": "COc1ccc(CCN(C)CCCS(=O)(=O)N(c2cc(Cl)cc(Cl)c2)C(C)C)cc1OC", "note": "[Example 4, N-(3,5-Dichlorophenyl)-3-[[2-(3,4-dimethoxyphenyl)ethyl]methylamino]-N-(1-methylethyl)-1-propanesulp-honamide]", "inhibition at 10 µM": 86}
{"tested_on": "rabbit aortic smooth muscle", "experiment": "Ca+2 antagonism: relaxation of KCl-depolarised rabbit thoracic aorta strips", "assay_type": "cell-based", "conditions": "test compound at 10-^s M as printed; 100 mM KCl contracted aortic strips; 20 min", "protocol": "as §1, §2, §3"}
{"smiles": "COc1cc(OC)cc(N(C(C)C)S(=O)(=O)CCCN(C)CCc2ccc(OC)c(OC)c2)c1", "note": "[Example 1, N-(3,5-Dimethoxyphenyl)-3-[(2-(3,4-dimethoxyphenyl)ethyl]-methylamino]-N-(1-methylethyl)-1-prop-anesulphonamide]", "percent relaxation (P. R.)": 27}
